According to US20230391739A1, “ARYL DERIVATIVES FOR TREATING TRPM3 MEDIATED DISORDERS” (Katholieke Universiteit Leuven, priority 2020, published 2023):

Target: T1, mouse TRPM3α2 (mTRPM3) ion channel (Mus musculus, UniProt J9SQF3)
T1 construct: expressed in transfected cells; host or cells: flip-in HEK293
Experiment: TRPM3 ion channel driven Ca2+ uptake, Fluo-4 AM assay, PS-stimulated (mTRPM3)
Format: cell-based
Conditions: TRPM3 overexpressing flip-in HEK293 cells stimulated with Pregnenolone sulfate (PS) 50 μM, activity ranges A, B, C
Method in brief: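 Ca²⁺ influx through mouse TRPM3α2, opened by 50 μM pregnenolone sulfate, was tracked with Fluo-4 AM in stably transfected HEK293 cells read directly after seeding onto pre-dispensed compound.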

T1 sequence (J9SQF3 1-1709 isoform J9SQF3-12): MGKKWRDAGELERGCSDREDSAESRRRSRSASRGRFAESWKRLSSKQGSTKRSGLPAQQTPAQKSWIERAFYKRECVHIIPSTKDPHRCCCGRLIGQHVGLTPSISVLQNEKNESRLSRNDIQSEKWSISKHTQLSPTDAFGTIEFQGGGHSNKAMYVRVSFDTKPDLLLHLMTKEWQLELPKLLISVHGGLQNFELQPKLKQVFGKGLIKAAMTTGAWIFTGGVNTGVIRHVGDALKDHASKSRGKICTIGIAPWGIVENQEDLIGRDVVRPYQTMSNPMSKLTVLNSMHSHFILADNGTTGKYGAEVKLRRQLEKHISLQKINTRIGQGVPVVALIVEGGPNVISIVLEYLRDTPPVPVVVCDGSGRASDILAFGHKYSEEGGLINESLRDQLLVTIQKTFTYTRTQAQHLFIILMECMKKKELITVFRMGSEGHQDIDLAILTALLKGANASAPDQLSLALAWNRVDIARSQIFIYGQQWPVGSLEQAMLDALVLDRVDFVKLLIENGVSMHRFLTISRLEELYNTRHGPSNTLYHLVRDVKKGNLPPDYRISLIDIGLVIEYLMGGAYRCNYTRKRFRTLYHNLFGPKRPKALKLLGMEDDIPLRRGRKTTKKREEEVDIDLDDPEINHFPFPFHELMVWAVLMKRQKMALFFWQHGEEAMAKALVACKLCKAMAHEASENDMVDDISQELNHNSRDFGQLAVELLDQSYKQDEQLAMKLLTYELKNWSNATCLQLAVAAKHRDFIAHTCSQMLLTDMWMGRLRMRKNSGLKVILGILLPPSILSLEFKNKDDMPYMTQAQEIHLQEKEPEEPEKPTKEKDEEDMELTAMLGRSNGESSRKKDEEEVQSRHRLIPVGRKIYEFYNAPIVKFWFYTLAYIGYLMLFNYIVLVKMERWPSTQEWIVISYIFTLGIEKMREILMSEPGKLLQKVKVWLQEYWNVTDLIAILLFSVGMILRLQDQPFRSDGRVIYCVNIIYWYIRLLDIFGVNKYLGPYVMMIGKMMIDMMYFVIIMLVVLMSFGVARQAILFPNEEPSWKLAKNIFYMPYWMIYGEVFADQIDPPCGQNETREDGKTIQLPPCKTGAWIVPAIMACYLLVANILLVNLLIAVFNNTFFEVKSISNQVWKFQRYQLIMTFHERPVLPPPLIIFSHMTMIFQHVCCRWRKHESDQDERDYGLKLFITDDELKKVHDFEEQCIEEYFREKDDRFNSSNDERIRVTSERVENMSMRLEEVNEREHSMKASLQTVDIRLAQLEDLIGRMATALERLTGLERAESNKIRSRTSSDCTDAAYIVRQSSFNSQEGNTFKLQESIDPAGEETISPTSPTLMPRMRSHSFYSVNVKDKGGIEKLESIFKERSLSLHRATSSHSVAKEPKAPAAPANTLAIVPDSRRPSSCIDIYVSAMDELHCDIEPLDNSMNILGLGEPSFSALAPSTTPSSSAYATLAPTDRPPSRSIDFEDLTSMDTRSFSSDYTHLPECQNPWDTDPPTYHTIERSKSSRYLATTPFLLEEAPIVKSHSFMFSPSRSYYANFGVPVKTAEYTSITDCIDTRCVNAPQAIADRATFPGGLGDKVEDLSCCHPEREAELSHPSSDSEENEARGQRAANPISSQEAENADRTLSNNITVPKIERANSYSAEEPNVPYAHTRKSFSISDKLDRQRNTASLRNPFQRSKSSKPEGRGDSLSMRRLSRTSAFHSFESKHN

| Compound | IC50 [nM] |
| --- | --- |
| Cc1oc2ccc(OC(CO)c3ccccc3)cc2c1C(=O)NC1(CO)CCOCC1 (single isomer, unassigned) [Cpd 317-En 2, 5-(2-hydroxy-1-phenylethoxy)-N-(4-(hydroxymethyl)tetrahydro-2H-pyran-4-yl)-2-methylbenzofuran-3-carboxamide] | 1000 to 20000 |
| Cc1oc2ccc(OCc3ccccc3)c(F)c2c1C(=O)NC1CNCC1(F)F (single isomer, unassigned) [Cpd 298-En 2, 5-(benzyloxy)-N-(4,4-difluoropyrrolidin-3-yl)-4-fluoro-2-methylbenzofuran-3-carboxamide] | 1000 to 20000 |
| Cc1oc2ccc(OCc3ccc(C#N)cc3)cc2c1C(=O)N[C@H]1CCNC1 [Cpd 103, (S)-5-((4-cyanobenzyl)oxy)-2-methyl-N-(pyrrolidin-3-yl)benzofuran-3-carboxamide] | 1000 to 20000 |
| Cc1oc2ccc(OCc3ccccc3)cc2c1C(=O)NCCN1CCN(C)CC1 [Cpd 189, 5-(benzyloxy)-2-methyl-N-(2-(4-methylpiperazin-1-yl)ethyl)benzofuran-3-carboxamide] | 1000 to 20000 |
| CC(=O)N1CC[C@H](NC(=O)c2c(C)oc3ccc(OCc4ccccc4)cc23)C1 [Cpd 145, (S)—N-(1-acetylpyrrolidin-3-yl)-5-(benzyloxy)-2-methylbenzofuran-3-carboxamide] | 1000 to 20000 |
| Cc1oc2ccc(OCc3ccccc3)cc2c1C(=O)NCCc1ccccc1 [Cpd 134, 5-(benzyloxy)-2-methyl-N-phenethylbenzofuran-3-carboxamide] | > 20000 |
| Cc1oc2ccc(OCc3ccccc3)cc2c1C(=O)N[C@H]1C[C@H]2CN(C)CCN2C1 [Cpd 205, 5-(benzyloxy)-2-methyl-N-((7S,8aS)-2-methyloctahydropyrrolo[1,2-a]pyrazin-7-yl)benzofuran-3-carboxamide] | 1000 to 20000 |
| Cc1oc2ccc(OCc3ccccc3)cc2c1C(=O)NCCCN(C)C [Cpd 091, 5-(benzyloxy)-N-(3-(dimethylamino)propyl)-2-methylbenzofuran-3-carboxamide] | 1000 to 20000 |
| Cc1oc2ccc(OCc3ccccc3)cc2c1C(=O)NC1CNC(=O)C1 (stereo not drawn) [Cpd 068, 5-(benzyloxy)-2-methyl-N-(5-oxopyrrolidin-3-yl)benzofuran-3-carboxamide] | 1000 to 20000 |
| Cc1oc2ccc(OCc3ccccc3)cc2c1C(=O)N1CCN(c2ccccn2)CC1 [Cpd 214, (5-(benzyloxy)-2-methylbenzofuran-3-yl)(4-(pyridin-2-yl)piperazin-1-yl)methanone] | 1000 to 20000 |
| Cc1oc2ccc(OCc3ccccc3C#N)cc2c1C(=O)O [Cpd 010, 5-((2-cyanobenzyl)oxy)-2-methylbenzofuran-3-carboxylic acid] | 1000 to 20000 |
| Cc1oc2ccc(OCc3ccccc3)cc2c1C(=O)NCCc1ccncc1 [Cpd 139, 5-(benzyloxy)-2-methyl-N-(2-(pyridin-4-yl)ethyl)benzofuran-3-carboxamide] | 1000 to 20000 |
| Cc1oc2ccc(OC(C)c3ccccc3C(F)(F)F)cc2c1C(=O)N[C@H]1CCN(C(=O)OC(C)(C)C)C1 (mixture of isomers) [Cpd 267, rac-tert-butyl (3R)-3-(2-methyl-5-(1-(2-(trifluoromethyl)phenyl)ethoxy)benzofuran-3-carboxamido)pyrrolidine-1-carboxylate] | > 20000 |
| Cc1oc2ccc(OCc3cccc(CNC(=O)OC(C)(C)C)c3)cc2c1C(=O)NC1CCNC1=O (stereo not drawn) [Cpd 261, tert-butyl (3-(((2-methyl-3-((2-oxopyrrolidin-3-yl)carbamoyl)benzofuran-5-yl)oxy)methyl)-benzyl)carbamate] | > 20000 |
| Cc1oc2ccc(OCc3ccccc3F)cc2c1C(=O)NC1COCC1(F)F (single isomer, unassigned) [Cpd 331-En 1] | > 20000 |
| Cc1oc2ccc(OCc3ccccc3)cc2c1C(=O)N[C@@H]1C[C@H]2COC[C@@H](C1)N2C(=O)OC(C)(C)C [Cpd 265, tert-butyl (1R,5S,7r)-7-(5-(benzyloxy)-2-methylbenzofuran-3-carboxamido)-3-oxa-9-azabicyclo-[3.3.1]nonane-9-carboxylate] | > 20000 |
| Cc1oc2ccc(OCc3ccccc3S(C)(=O)=O)cc2c1C(=O)NC1CCN(C)CC1 [Cpd 242, 2-methyl-N-(1-methylpiperidin-4-yl)-5-((2-(methylsulfonyl)benzyl)oxy)benzofuran-3-carboxamide] | > 20000 |
| Cc1oc2ccc(OC(CN(C)C)c3ccccc3)cc2c1C(=O)N[C@@H](CO)C(N)=O (single isomer, unassigned) [Cpd 347-En 1] | 1000 to 20000 |
| Cc1oc2ccc(OCc3ccccc3)cc2c1C(=O)NS(=O)(=O)C1CC1 [Cpd 133, 5-(benzyloxy)-N-(cyclopropylsulfonyl)-2-methylbenzofuran-3-carboxamide] | < 1000 |
| Cc1oc2ccc(OCc3ccccc3)cc2c1C(=O)NCC1CCN(C(=O)OC(C)(C)C)CC1 [Cpd 253, tert-butyl 4-((5-(benzyloxy)-2-methylbenzofuran-3-carboxamido)methyl)piperidine-1-carboxylate] | > 20000 |
| Cc1oc2ccc(OCc3ccccc3)cc2c1C(=O)Nc1cccnc1 [Cpd 059, 5-(benzyloxy)-2-methyl-N-(pyridin-3-yl)benzofuran-3-carboxamide] | < 1000 |
| Cc1oc2ccc(OCc3ccccc3)cc2c1C(=O)NC1CC2CCC(C1)N2C (stereo not drawn) [Cpd 181, 5-(benzyloxy)-2-methyl-N-(8-methyl-8-azabicyclo[3.2.1]octan-3-yl)benzofuran-3-carboxamide] | < 1000 |

The remaining lines, values ahead:

| IC50 [nM] | Compound |
| --- | --- |
| < 1000 | Cc1oc2ccc(OCc3ccccc3)cc2c1C(=O)NC1CC(O)C1 (stereo not drawn) [Cpd 052, 5-(benzyloxy)-N-(3-hydroxycyclobutyl)-2-methylbenzofuran-3-carboxamide] |
| < 1000 | Cc1oc2ccc(OCc3c(F)cccc3Cl)cc2c1C(N)=O [Cpd 041, 5-((2-chloro-6-fluorobenzyl)oxy)-2-methylbenzofuran-3-carboxamide] |
| < 1000 | Cc1oc2ccc(OCc3ccccc3)cc2c1C(=O)N[C@@H]1CCNC1 [Cpd 048, (R)-5-(benzyloxy)-2-methyl-N-(pyrrolidin-3-yl)benzofuran-3-carboxamide] |
| < 1000 | Cc1oc2ccc(OCc3c(F)cccc3F)cc2c1C(=O)N[C@H]1CCNC1 [Cpd 136, (S)-5-((2,6-difluorobenzyl)oxy)-2-methyl-N-(pyrrolidin-3-yl)benzofuran-3-carboxamide] |
| < 1000 | Cc1oc2ccc(OCc3ccccc3)cc2c1C(=O)NC1CCNC1=O (stereo not drawn) [Cpd 071, 5-(benzyloxy)-2-methyl-N-(2-oxopyrrolidin-3-yl)benzofuran-3-carboxamide] |
| < 1000 | Cc1oc2ccc(OCc3ccccc3)cc2c1C(=O)N[C@H]1CN[C@H](C(N)=O)C1 [Cpd 158, (2S,4R)-4-(5-(benzyloxy)-2-methylbenzofuran-3-carboxamido)pyrrolidine-2-carboxamide] |
| < 1000 | Cc1oc2ccc(OCc3ccccc3)cc2c1C(=O)NC1CN(C2COC2)C1 [Cpd 148, 5-(benzyloxy)-2-methyl-N-(1-(oxetan-3-yl)azetidin-3-yl)benzofuran-3-carboxamide] |
| < 1000 | Cc1oc2ccc(OCc3ccccc3F)cc2c1C(=O)NC1(CO)COC1 [Cpd 310, 5-((2-fluorobenzyl)oxy)-N-(3-(hydroxymethyl)oxetan-3-yl)-2-methylbenzofuran-3-carboxamide] |
| < 1000 | Cc1oc2ccc(OCc3ccccc3)cc2c1C(=O)NC1CCOC1 (stereo not drawn) [Cpd 051, 5-(benzyloxy)-2-methyl-N-(tetrahydrofuran-3-yl)benzofuran-3-carboxamide] |
| < 1000 | Cc1ccccc1COc1ccc2oc(C)c(C(=O)O)c2c1 [Cpd 003, 2-methyl-5-((2-methylbenzyl)oxy)benzofuran-3-carboxylic acid] |
| < 1000 | Cc1oc2ccc(OC(C)(C)c3ccccc3)cc2c1C(=O)NC1(CO)CCOCC1 [Cpd 316, N-(4-(hydroxymethyl)tetrahydro-2H-pyran-4-yl)-2-methyl-5-((2-phenylpropan-2-yl)oxy)benzofuran-3-carboxamide] |
| < 1000 | Cc1oc2ccc(OCc3ccccc3C(F)(F)F)cc2c1C(=O)NC1CCNC1=O (stereo not drawn) [Cpd 219, 2-methyl-N-(2-oxopyrrolidin-3-yl)-5-((2-(trifluoromethyl)benzyl)oxy)benzofuran-3-carboxamide] |
| < 1000 | Cc1oc2ccc(OCc3ccccc3C(F)(F)F)cc2c1C(=O)O [Cpd 024, 2-methyl-5-((2-(trifluoromethyl)benzyl)oxy)benzofuran-3-carboxylic acid] |
| < 1000 | Cc1oc2ccc(OCc3ccccc3)cc2c1C(=O)NC1CCN2CCCC12 (single isomer, unassigned) [Cpd 144-Dia 2, 5-(benzyloxy)-N-(hexahydro-1H-pyrrolizin-1-yl)-2-methylbenzofuran-3-carboxamide] |
| < 1000 | Cc1oc2ccc(OCc3c(F)cccc3F)cc2c1C(=O)NC1(CO)CCOCC1 [Cpd 218, 5-((2,6-difluorobenzyl)oxy)-N-(4-(hydroxymethyl)tetrahydro-2H-pyran-4-yl)-2-methylbenzo-furan-3-carboxamide] |
| < 1000 | Cc1oc2ccc(OCc3ccccc3)cc2c1C(=O)NC1CCN2CCCC12 (single isomer, unassigned) [Cpd 144-Dia 1, 5-(benzyloxy)-N-(hexahydro-1H-pyrrolizin-1-yl)-2-methylbenzofuran-3-carboxamide] |
| < 1000 | Cc1oc2ccc(OCc3ccccc3)cc2c1C(=O)NC1CCN(C(C)C)CC1 [Cpd 185, 5-(benzyloxy)-N-(1-isopropylpiperidin-4-yl)-2-methylbenzofuran-3-carboxamide] |
| < 1000 | Cc1oc2ccc(OCc3ccccc3F)cc2c1C(=O)N[C@@H]1COC[C@@H]1O (single isomer, unassigned) [Cpd 329-En 1] |
| < 1000 | Cc1oc2ccc(OCc3ccccc3)cc2c1C(=O)NC1CNCC1F (racemic) [Cpd 093, rac-5-(benzyloxy)-N-(trans-4-fluoropyrrolidin-3-yl)-2-methylbenzofuran-3-carboxamide] |
| < 1000 | Cc1oc2ccc(OCc3ccccc3)cc2c1C(N)=O [Cpd 035, 5-(benzyloxy)-2-methylbenzofuran-3-carboxamide] |
